Measurements as given in ChEMBL document CHEMBL3739395, “Discovery and optimisation of 1-acyl-2-benzylpyrrolidines as potent dual orexin receptor antagonists” (Medchemcomm, 2015).
Activity calls are given as the source filed them. No cut-off for these calls is given here.

Experiments:
[1] = Drug uptake in Wistar rat cerebrospinal fluid at 100 mg/kg, po measured 3 hrs post dose; assay type: ADME, organism-based; conditions: read-out: Drug uptake
[2] = target: T1, Orexin/Hypocretin receptor type 1 (Rattus norvegicus) (UniProt P56718); experiment: Insurmountable antagonist activity against rat orexin-1 receptor expressed in CHO cells assessed as calcium release at IC50 preincubated for 120 mins followed by addition of orexin-A by Cheng-Prusoff equation analysis; assay type: functional, cell-based
T1 sequence (whole entry): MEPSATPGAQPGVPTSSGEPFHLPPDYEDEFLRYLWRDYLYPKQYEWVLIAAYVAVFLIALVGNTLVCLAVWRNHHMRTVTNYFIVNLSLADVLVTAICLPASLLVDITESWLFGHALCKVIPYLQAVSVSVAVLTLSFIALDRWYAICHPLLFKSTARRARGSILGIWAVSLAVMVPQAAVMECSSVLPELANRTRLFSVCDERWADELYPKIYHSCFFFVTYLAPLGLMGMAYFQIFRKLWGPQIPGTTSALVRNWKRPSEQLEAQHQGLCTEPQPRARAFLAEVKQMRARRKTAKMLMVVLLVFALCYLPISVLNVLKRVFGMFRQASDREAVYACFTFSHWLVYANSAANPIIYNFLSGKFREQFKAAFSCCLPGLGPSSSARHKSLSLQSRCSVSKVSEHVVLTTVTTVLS

[3] = target: T2, Orexin receptor type 2 (Rattus norvegicus) (UniProt P56719); experiment: Insurmountable antagonist activity against rat orexin-2 receptor expressed in CHO cells assessed as calcium release at IC50 preincubated for 120 mins followed by addition of orexin-A by Cheng-Prusoff equation analysis; assay type: functional, cell-based
T2 sequence (whole entry): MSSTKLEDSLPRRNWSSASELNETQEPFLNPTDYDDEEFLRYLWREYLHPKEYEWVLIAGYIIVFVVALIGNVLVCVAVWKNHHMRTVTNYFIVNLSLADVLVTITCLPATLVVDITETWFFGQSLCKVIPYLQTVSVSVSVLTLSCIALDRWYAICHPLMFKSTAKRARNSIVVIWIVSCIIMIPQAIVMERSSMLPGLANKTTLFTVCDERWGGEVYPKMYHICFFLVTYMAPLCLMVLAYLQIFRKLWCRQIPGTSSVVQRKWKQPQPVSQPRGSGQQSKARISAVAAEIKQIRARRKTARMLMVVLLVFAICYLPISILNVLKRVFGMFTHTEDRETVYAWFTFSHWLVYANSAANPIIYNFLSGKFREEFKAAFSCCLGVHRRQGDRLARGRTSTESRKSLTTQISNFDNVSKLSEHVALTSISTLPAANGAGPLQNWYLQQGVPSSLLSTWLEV

[4] = Fraction unbound in rat plasma; assay type: ADME, cell-free
[5] = Fraction unbound in rat brain; assay type: ADME, tissue-based
[6] = Ratio of drug level in brain to plasma of rat; assay type: ADME; conditions: brain and plasma, read-out: BPR
Brain = experiment: Free drug level in rat brain; assay type: ADME, tissue-based; conditions: in vivo
Orexin receptor type 2 = target: T3, Orexin receptor type 2 (Homo sapiens, UniProt O43614); experiment: Inhibition of human orexin-2 receptor expressed in CHO cells assessed as calcium release preincubated for 120 mins followed by addition of orexin-A by fluo-4 AM based-FLIPR analysis; assay type: functional, cell-based
T3 sequence (O43614 whole entry): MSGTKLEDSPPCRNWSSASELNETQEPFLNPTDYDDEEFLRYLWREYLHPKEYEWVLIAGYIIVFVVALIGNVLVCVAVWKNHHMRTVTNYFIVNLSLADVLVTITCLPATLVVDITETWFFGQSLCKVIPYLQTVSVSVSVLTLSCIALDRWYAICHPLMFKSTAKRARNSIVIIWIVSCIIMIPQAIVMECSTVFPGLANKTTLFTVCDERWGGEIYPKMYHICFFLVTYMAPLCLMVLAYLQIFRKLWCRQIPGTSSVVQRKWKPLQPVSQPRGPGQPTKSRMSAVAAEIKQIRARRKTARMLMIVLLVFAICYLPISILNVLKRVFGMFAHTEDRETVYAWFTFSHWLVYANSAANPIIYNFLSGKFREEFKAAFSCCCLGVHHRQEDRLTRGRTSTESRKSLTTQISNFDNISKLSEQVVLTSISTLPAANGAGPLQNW

[7] = Intrinsic clearance in human liver microsomes at 1 uM; assay type: ADME; conditions: read-out: CLH
[8] = Intrinsic clearance in rat liver microsomes at 1 uM; assay type: ADME; conditions: read-out: CLH
[9] = target: T4, Orexin/Hypocretin receptor type 1 (Homo sapiens, UniProt O43613); experiment: Inhibition of human orexin-1 receptor expressed in CHO cells assessed as calcium release preincubated for 120 mins followed by addition of orexin-A by fluo-4 AM based-FLIPR analysis; assay type: functional, cell-based
T4 sequence (O43613 whole entry): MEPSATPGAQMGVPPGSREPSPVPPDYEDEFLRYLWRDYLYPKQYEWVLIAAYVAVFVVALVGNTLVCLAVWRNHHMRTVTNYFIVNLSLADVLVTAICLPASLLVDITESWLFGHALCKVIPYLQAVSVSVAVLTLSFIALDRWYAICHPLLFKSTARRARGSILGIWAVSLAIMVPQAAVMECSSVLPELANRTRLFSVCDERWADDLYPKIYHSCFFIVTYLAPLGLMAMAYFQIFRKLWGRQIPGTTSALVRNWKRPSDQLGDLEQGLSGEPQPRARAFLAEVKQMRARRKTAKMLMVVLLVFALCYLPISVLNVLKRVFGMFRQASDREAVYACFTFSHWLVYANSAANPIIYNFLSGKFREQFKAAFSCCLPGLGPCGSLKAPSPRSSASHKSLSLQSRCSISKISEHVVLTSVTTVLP

[10] = target: T5, Orexin/Hypocretin receptor type 1 (Homo sapiens) (UniProt O43613); experiment: Insurmountable antagonist activity against human orexin-1 receptor expressed in CHO cells assessed as calcium release at IC50 preincubated for 120 mins followed by addition of orexin-A by Cheng-Prusoff equation analysis; assay type: functional, cell-based
T5 sequence (whole entry): T4 sequence (O43613 whole entry)

[11] = target: T6, Orexin receptor type 2 (Homo sapiens) (UniProt O43614); experiment: Insurmountable antagonist activity against human orexin-2 receptor expressed in CHO cells assessed as calcium release at IC50 preincubated for 120 mins followed by addition of orexin-A by Cheng-Prusoff equation analysis; assay type: functional, cell-based
T6 sequence (whole entry): T3 sequence (O43614 whole entry)

[12] = target: T5, Orexin/Hypocretin receptor type 1 (Homo sapiens); experiment: Competitive antagonist activity against human orexin-1 receptor expressed in CHO cells assessed as shift in orexin-A CRC at IC50 incubated for 120 mins in presence of orexin-A by Cheng-Prusoff equation analysis; assay type: cell-based
[13] = target: T6, Orexin receptor type 2 (Homo sapiens); experiment: Competitive antagonist activity against human orexin-2 receptor expressed in CHO cells assessed as shift in orexin-A CRC at IC50 incubated for 120 mins in presence of orexin-A by Cheng-Prusoff equation analysis; assay type: cell-based
Rattus norvegicus [14] = experiment: Reduction in home cage activity in Wistar rat sleep model at 100 mg/kg, po administered as single dose during first 6 hrs of night active period post dose relative to vehicle control; assay type: functional; design: scale not given: the % may be the effect or the level left
Rattus norvegicus [15] = experiment: Sleep promoting effect in Wistar rat sleep model at 100 mg/kg, po administered as single dose during first 6 hrs of night active period post dose relative to vehicle control; assay type: functional, organism-based
[16] = target: T5, Orexin/Hypocretin receptor type 1 (Homo sapiens); experiment: Inhibition of human orexin-1 receptor expressed in CHO cells assessed as time duration for Kb change preincubated for 120 mins followed by stimulation with orexin-A post compound washout by FLIPR assay; assay type: cell-based
[17] = target: T6, Orexin receptor type 2 (Homo sapiens); experiment: Inhibition of human orexin-2 receptor expressed in CHO cells assessed as time duration for Kb change preincubated for 120 mins followed by stimulation with orexin-A post compound washout by FLIPR assay; assay type: cell-based
Rattus norvegicus [18] = experiment: Reduction in time spent in active wake state in Wistar rat sleep model at 100 mg/kg, po administered as single dose during first 6 hrs of night active period post dose relative to vehicle control; assay type: functional; design: scale not given: the % may be the effect or the level left
Rattus norvegicus [19] = experiment: Increase in time spent in quiet wake state in Wistar rat sleep model at 100 mg/kg, po administered as single dose during first 6 hrs of night active period post dose relative to vehicle control; assay type: functional
Rattus norvegicus [20] = experiment: Increase in time spent in non-rapid eye movement sleep in Wistar rat sleep model at 100 mg/kg, po administered as single dose during first 6 hrs of night active period post dose relative to vehicle control; assay type: functional
Rattus norvegicus [21] = experiment: Increase in time spent in rapid eye movement sleep in Wistar rat sleep model at 100 mg/kg, po administered as single dose during first 6 hrs of night active period post dose relative to vehicle control; assay type: functional
[22] = target: T5, Orexin/Hypocretin receptor type 1 (Homo sapiens); conditions: CHO
Description: Inhibition of human orexin-1 receptor expressed in CHO cells assessed as occupancy half life preincubated for 120 mins followed by stimulation with orexin-A post compound washout measured at 0 to 30 mins by FLIPR assay

[23] = target: T6, Orexin receptor type 2 (Homo sapiens); conditions: CHO
Description: Inhibition of human orexin-2 receptor expressed in CHO cells assessed as occupancy half life preincubated for 120 mins followed by stimulation with orexin-A post compound washout measured at 0 to 30 mins by FLIPR assay

Question: For COc1ccc(C[C@@H]2CCCN2C(=O)c2nc(C)sc2-c2ccc3c(c2)OCO3)cc1OC, which concentration at 3 h [1] is on record?
Answer: Its concentration at 3 h is 133 ng/mL.

Question: And the Kb [2]?
Answer: The Kb was 7.3 nM.

Question: And the Kb [3]?
Answer: Its Kb is 1.7 nM.

Question: What about the fraction unbound [4] of the same compound?
Answer: Its fraction unbound is 0.027.

Question: What about the fraction unbound [5] of the same compound?
Answer: The fraction unbound was 0.04.

Question: And the Kp [6]?
Answer: The Kp was 0.68.

Question: What about the “Drug uptake(free)” value (Brain) of the same compound?
Answer: The value was 60 nM.

Question: And the IC50 (Orexin receptor type 2)?
Answer: Its IC50 is 6.6 nM.

Question: And the microsomal CLint at 1 µM [7]?
Answer: The microsomal CLint at 1 µM was 197 µL/min/mg.

Question: What about the microsomal CLint at 1 µM [8] of the same compound?
Answer: The microsomal CLint at 1 µM was over 1250 µL/min/mg.

Question: What about the IC50 [9] of the same compound?
Answer: The IC50 was 11 nM.

Question: What about the Kb [10] of the same compound?
Answer: Its Kb is 5.3 nM.

Question: What about the Kb [11] of the same compound?
Answer: Its Kb is 1.4 nM.

Question: What about the inhibition [12] of the same compound?
Answer: Its inhibition is “Active”.

Question: And the inhibition [13]?
Answer: The inhibition was “Active”.

Question: What about the Activity (Rattus norvegicus [14]) of the same compound?
Answer: Its Activity is 47%.

Question: What about the Activity (Rattus norvegicus [15]) of the same compound?
Answer: Its Activity is “Active”.

Question: And the TIME [16]?
Answer: The TIME was 0.0833 h.

Question: What about the TIME [17] of the same compound?
Answer: Its TIME is 0.333 h.

Question: What about the Activity (Rattus norvegicus [18]) of the same compound?
Answer: The Activity was -29%.

Question: What about the Activity (Rattus norvegicus [19]) of the same compound?
Answer: Its Activity is 17%.

Question: What about the Activity (Rattus norvegicus [20]) of the same compound?
Answer: The Activity was 18%.

Question: And the Activity (Rattus norvegicus [21])?
Answer: The Activity was 84%.

Question: And the T1/2 [22]?
Answer: The T1/2 was 1.1 min.

Question: And the T1/2 [23]?
Answer: The T1/2 was 5.4 min.
